Where two headings read alike, the source gives them in different places.
Assays:
[1] = tested on: hard and soft fouling; assay: Antifouling efficacy of paint on fiberglass panels submerged in seawater; format: in vivo; conditions: single biocide, explanatory statement
Experimental: The antifouling efficacy of the composition of Example 1 was evaluated by mixing […] of it into 90 grams of a paint base. The commercial paint comprised:
This paint was painted onto fiberglass panels (8″×10″) and (12″×6″), which were then submerged in seawater for eight months (and running) in Miami, Fla.

[2] = cited from earlier work; for solubility: background statement

Row | Compound | efficacy against algae [1] | solubility [2] | water solubility ([2]; in seawater) | resistance to barnacle formation [1] | water solubility ([2]; water)
1 | On1ccccc1=S.On1ccccc1=S.[Cu] [Copper pyrithione, copper pyrithione] | most effective against algae | about 1 ppm | less than 1 ppm |  | 
2 | [Cu].[O]=[Cu] [cuprous oxide] | relatively ineffective against algae |  |  | strongly resisting barnacle formation | 
3 | [Na+].[O-][n+]1ccccc1[S-] [sodium salt of pyrithione, sodium pyrithione] |  |  |  |  | about 53 % by weight
4 | zinc pyrithione |  | 6-10 ppm |  |  | 6-10 ppm

Reference: patent US8158158B2, “Composite biocidal particles” (Arch Chemicals, Inc., priority 1998, dated 2012)
